Experimental data published in patent publication US7416876B2, “N-carbobenzyloxy (N-CBZ)-deprotecting enzyme” (Bristol-Meyers Squibb Company, priority 2001, dated 2008).

Key:
[1] = test system: CBZ-deprotecting enzyme (cell extracts of Sphingomonas paucimobilis ATCC 202027); experiment: CBZ-deprotection using cell extract; type: biochemical; conditions: 42° C., 18-20 hours, HPLC
Description: (§1) HPLC analysis was performed using a Hewlett-Packard (HP) 1090 instrument with a Vydac C-18 reverse phase column. The mobile phase solvent A containing 0.1% trifluoroacetic acid (TFA) in water and solvent B containing 0.1% TFA in 70% acetonitrile: 30% water. The following gradient of solvent A and B was used for the separation of substrates and products:
(§2) 0-15 min: 50% B,15-25 min: 100% B, 25-26 min: 0% B, and 26-30 min: 0% B. The flow rate was 1 mL/min. The column temperature was ambient, and the detection wavelength was at 215 nm. Under these conditions, the retention times for Compound A, Compound B, CBZ-L-Phenylalanine and L-Phenylalanine are 15.48 min., 7.28 min., 16.99 min. and 7.35 min., respectively. All other CBZ-containing compounds were also analyzed using these conditions.
Preparation of cell extracts were carried out at 4-7° C. Cells were washed with 50 mM potassium phosphate buffer, pH 7.0, and the washed cells (100 g) were suspended in 500 mL of buffer A (50 mM phosphate buffer, pH 7.0 containing 10% glycerol, and 2 mM DTT). To the cell suspensions, 1 mM phenylmethylsulfonyl fluoride (PMSF) solution in isopropanol was added. Cell suspensions (20% W/V, wet cells) were passed through a Microfluidizer (Microfluidics, Inc) at 12,000 psi (two passages) and disintegrated cells were centrifuged at 25,000×g for 30 min at 4° C. The supernatant solution obtained after centrifugation is referred to as cell extract.
The cell extracts was used in deprotecting the CBZ-group from various compounds. It was useful in deprotecting CBZ-groups in various processes. Various D and L-CBZ-protected amino acids were incubated with the cell extract at 42° C. for 18 -20 hours. The reactions were stopped by addition of 2 volumes of 50% acetonitrile containing 0.4% trifluro acetic acid (TFA). The results shown in table 2 indicate that the enzyme is specific in hydrolyzing the CBZ-group from CBZ-protected L-amino acids.

[2] = test system: Sphingomonas paucimobilis; experiment: Biotransformation (CBZ deprotection) using whole cells; type: cell-based; conditions: whole cells grown in medium B with 25 mg substrate, 28° C., 48 hours, HPLC
Description: In this process, the Sphingomonas paucimobilis was grown in 25 mL of medium B containing 25 mg of substrate (Compound A or CBZ-L-Phenylalanine) in a 250-mL flask. The flask was incubated at 28° C. and 250 rpm on a shaker. After 48 hours of biotransformation, the cells were removed by centrifugation. The supernatant containing the product [4S-(4α,7α,10aβ)]-Octahydro-5-oxo-4-amino-7H-pyrido-[2,1-b] [1,3]thiazepine-7-carboxylic acid, methyl ester (Compound B) or L-Phenylalanine was analyzed by HPLC.
as §1, §2

CBZ-deprotecting enzyme = experiment: Deprotection of CBZ-containing compounds with purified CBZ-deprotecting enzyme; type: biochemical, Sphingomonas paucimobilis; conditions: for % Conversion: purified enzyme
Description: Compound A or CBZ-phenylalanine at 0.5mg was incubated with 0.4 mL of cell extract/fractions in 50 mM phosphate buffer, pH 7 at 45° C. for 18 hours. The reaction is stopped by the addition 1 ml of 50% acetonitrile containing 0.4% TFA. The samples were filtered and analyzed by HPLC for product and starting material. All the purification steps were carried out at room temperature. The purification of the enzyme was carried out using CBZ-L-phenylalanine as the substrate. The cell extract, prepared as above, was batch adsorbed with DEAE-cellulose (pre-equilibrated with buffer A) for 2 hours. The follow-through, which contained the active enzyme, was precipitated with ammonium sulfate (516 g/L) with constant stirring for 2 hours. The resulting precipitate obtained by centrifugation (15,000 rpm at 4° C.) was solubilized in buffer A containing 1M ammonium sulfate, loaded on to phenylsepharose (20 mL column which was pre-equlibriaiated with buffer A containing 1M ammonium sulfate). The column was sequentially washed with the buffer A containing 1M ammonium sulfate, 0.5M ammonium sulfate and 0.2M ammonium sulfate. Finally, the enzyme was eluted with buffer A. The fractions containing active enzyme were pooled (30 mL) and concentrated with Amicon PM-10 membrane (8 mL). The enzyme was then loaded on to S-200 gel-filtration column (400 mL column). The enzyme was eluted with buffer A with a flow rate of 0.8 mL/min. With these steps the enzyme was purified more than 150-fold with a specific activity of 13.9 units/mg protein (table 3). The unit is defined as μmole of product formed/min/mg of protein. The enzyme is a […] protein with a molecular weight of 154,000 daltons with a subunit molecular weight of 45,000 daltons, as determined by SDS-PAGE. The purified enzyme prepared as described in this section has been used to deprotect CBZ-containing compounds as shown in table 4.

[3] = test system: recombinant N-CBZ-deprotecting enzyme; experiment: Deprotection with recombinant enzyme (cell extract from E. coli BL21 (DE3)(pBMS2000-cbz)); type: biochemical, Sphingomonas paucimobilis; conditions: 0.5 mg substrate, 0.5 ml cell extract, 28° C., 1 hr, HPLC
Description: The reaction contained 0.5 mg of CBZ-L-phe and 0.5 ml of cell extract from E. coli BL21 (DE3)(pBMS2000-cbz) that expressed the deprotecting enzyme. Preparation of cell extract was as follows: 2 g of recombinant cells were suspended in 10 mL buffer A (50 mM phosphate buffer, pH 7.5, 1 mM EDTA), sonicated for 2 minutes (20 seconds pulse on and 30 seconds pulse off) using a model 550 Sonic Dismembrator from Misonix Inc., Farmingdale, N.Y. The disintegrated cells were centrifuged for 15 min at 8000 rpm at 4° C. and the resulting supernatant, referred to as a cell extract, was used for these studies. The reactions were carried out in a culture tube at 28° C. After 1 hr, samples were quenched with 1 ml of acetonitrile and analyzed by HPLC (described earlier).

Molecule | % Conversion [1] [%] | further results
O-α-CBZ-L-tyrosine | 100 | 
CC(C)C[C@H](NC(=O)OCc1ccccc1)C(=O)O [N-α-CBZ-L-Leucine] | 100 | 
O=C(NCCCC[C@H](NC(=O)OCc1ccccc1)C(=O)O)OCc1ccccc1 [N-α-ε-(CBZ)2-L-Lysine] | 24 | 
O=C(N[C@@H](Cc1ccc(O)cc1)C(=O)O)OCc1ccccc1 [N-α-CBZ-L-tyrosine] | 100 | 
N[C@H](CCCCNC(=O)OCc1ccccc1)C(=O)O [N-ε-CBZ-D-Lysine] | 7 | 
O=C(N[C@H](Cc1ccccc1)C(=O)O)OCc1ccccc1 [N-α-CBZ-D-phenylalanine] | 0 | 
O=C(N[C@@H](Cc1ccccc1)C(=O)O)OCc1ccccc1 [CBZ-L-Phenylalanine, N-α-CBZ-L-phenylalanine] | 100 | % Conversion [2]: 100%; % Conversion (CBZ-deprotecting enzyme): 100%; deprotection of the substrate [3]: complete deprotection
COC(=O)[C@@H]1CCC[C@@H]2SCC[C@H](NC(=O)OCc3ccccc3)C(=O)N21 [Compound A, [4S-(4α,7α, 10aβ)]-Octahydro-5-oxo-4-[[(phenylmethoxy)carbonyl]amino]-7H-pyrido-[2,1-b] [1,3]thiazepine-7-carboxylic acid, methyl ester] | 95 | % Conversion [2]: 100%; % Conversion (CBZ-deprotecting enzyme): 100%
O=C(O)[C@@H]1CCCN1C(=O)OCc1ccccc1 [N-α-CBZ-L-Proline] | 100 | 
O=C(O)[C@H]1CCCN1C(=O)OCc1ccccc1 [N-α-CBZ-D-Proline] | 0 | 
O=C(N[C@H](Cc1ccc(O)cc1)C(=O)O)OCc1ccccc1 [N-α-CBZ-D-tyrosine] | 1.58 | 
NCCCC[C@H](NC(=O)OCc1ccccc1)C(=O)O [N-α-CBZ-L-Lysine, N-α-CBZ-L-lysine] | 52 | 
CC(C)C[C@@H](NC(=O)OCc1ccccc1)C(=O)O [N-α-CBZ-D-Leucine] | 1.2 | 
CBZ-deprotecting enzyme: enzyme purified from Sphingomonas paucimobilis ATCC 202027 that removes CBZ from protected amines and alcohols; SEQ ID NO:2 (protein, listed as Sphingomonas paucimobilis) MVQPTPTPQSELPGLIARDMEGLMTLYRDLHANPELSLQEVNTAAKLAKRLKAMKFDVTEKVGGTGVVAVMKNGSGPVLLIRADMDGLPVVEQTGLDFASKVRTKTPEGVETGVMHACGHDTHMTAFIETAKLLSSQKDKWKGTLVMILQPAEEVGKGARDMLEDGLYTRFPRPTHAIAFHDAANLQAGVVGYTPGYALANVDSVDIVVKGLGGHGAYPQTTRDPIVLGSRIVTSLQTLVSREQDPQDPAVVTVGSFQAGAKHNIIPDQALLLLTVRSYSDETRAKLIKGIERIARGEAIAAGVPDDKMPVVSVKDEFTPSTYNPPEFAEQMGALLKGHFAEGRVVKTPAVMGGEDFGRFYRADKSINSFIFWVGGVPADKMAAAQAGQITLPSLHSPFWAPEADKVIATASEAMTVLAMDILKKD |  | specific activity (CBZ-deprotecting enzyme; purified enzyme after S-200 gel filtration, CBZ-L-phenylalanine as substrate): 13.9 units/mg protein
